Key:
[1] = tested on: SETVI; test: Pre-emergence herbicidal action; assay type: in vivo, Setaria viridis; conditions: 20 g a.i./ha, comparative experiment
Text: (§1) Seeds of monocotyledonous and dicotyledonous weed plants and crop plants are laid out in sandy loam soil in wood-fibre pots and covered with soil. The compounds of the invention, formulated in the form of wettable powders (WP) or as emulsion concentrates (EC), are then applied to the surface of the covering soil in the form of an aqueous suspension or emulsion at a water application rate equivalent to 600 to 800 l/ha, with addition of 0.2% wetting agent. After the treatment, the pots are placed in a greenhouse and kept under good growth conditions for the trial plants. The damage to the test plants is scored visually after a test period of 3 weeks by comparison with untreated controls (herbicidal activity in percent (%): 100% activity=the plants have died, 0% activity=like control plants). […] The tables below illustrate, in an illustrative manner, the post-emergence herbicidal action of the compounds of the invention, the herbicidal activity being stated in percent. In the experiments that follow, the herbicidal action of the compounds of the invention and that of the corresponding known racemic compounds closest from WO2012126932 and WO2018202535 were compared under the above-specified conditions by the pre-emergence and post-emergence method. The example numbers given in the tables relate to the compounds disclosed in the respective documents.

[2] = tested on: VERPE; test: Post-emergence herbicidal action; assay type: in vivo, Veronica persica; conditions: 5 g a.i./ha, comparative experiment
Procedure: (§2) Seeds of monocotyledonous and dicotyledonous weed and crop plants are laid out in sandy loam soil in wood-fibre pots, covered with soil and cultivated in a greenhouse under good growth conditions. 2 to 3 weeks after sowing, the test plants are treated at the one-leaf stage. The compounds of the invention, formulated in the form of wettable powders (WP) or as emulsion concentrates (EC), are then sprayed onto the green parts of the plants in the form of an aqueous suspension or emulsion at a water application rate equating to 600 to 800 l/ha, with addition of 0.2% wetting agent. After the test plants have been left to stand in the greenhouse under optimal growth conditions for about 3 weeks, the action of the preparations is assessed visually in comparison to untreated controls (herbicidal action in percent (%): 100% activity=the plants have died, 0% activity=like control plants). […] The tables below illustrate, in an illustrative manner, the post-emergence herbicidal action of the compounds of the invention, the herbicidal activity being stated in percent. In the experiments that follow, the herbicidal action of the compounds of the invention and that of the corresponding known racemic compounds closest from WO2012126932 and WO2018202535 were compared under the above-specified conditions by the pre-emergence and post-emergence method. The example numbers given in the tables relate to the compounds disclosed in the respective documents.

[3] = tested on: CYPES; test: Post-emergence herbicidal action; assay type: in vivo, Cyperus esculentus; conditions: 20 g a.i./ha, comparative experiment
Procedure: as §2, with “The example numbers given in the tables relate to the compounds disclosed in the respective documents.” left out

[4] = tested on: ALOMY; test: Pre-emergence herbicidal action; assay type: in vivo, Alopecurus myosuroides; conditions: 20 g a.i./ha, comparative experiment
Text: as §1

[5] = tested on: SETVI; test: Post-emergence herbicidal action; assay type: in vivo, Setaria viridis; conditions: 5 g a.i./ha, comparative experiment
Procedure: as §2

[6] = tested on: MATIN; test: Pre-emergence herbicidal action; assay type: in vivo, Matricaria inodora; conditions: 20 g a.i./ha, comparative experiment
Text: as §1

[7] = tested on: POLCO; test: Pre-emergence herbicidal action; assay type: in vivo, Polygonum convolvulus; conditions: 320 g a.i./ha, comparative experiment
Text: as §1

[8] = tested on: ZEAMX; test: Post-emergence damage to crop plants; assay type: in vivo, Zea mays; conditions: 20 g a.i./ha, comparative experiment
Procedure: as §2

[9] = tested on: VERPE; test: Pre-emergence herbicidal action; assay type: in vivo, Veronica persica; conditions: comparative experiment
Text: as §1

[10] = tested on: ZEAMX; test: Pre-emergence damage to crop plants; assay type: in vivo, Zea mays; conditions: comparative experiment
Text: as §1

[11] = tested on: STEME; test: Pre-emergence herbicidal action; assay type: in vivo, Stellaria media; conditions: comparative experiment
Text: as §1

[12] = tested on: STEME; test: Post-emergence herbicidal action; assay type: in vivo, Stellaria media; conditions: 5 g a.i./ha, comparative experiment
Procedure: as §2

[13] = tested on: AVEFA; test: Pre-emergence herbicidal action; assay type: in vivo, Avena fatua; conditions: 20 g a.i./ha, comparative experiment
Text: as §1

[14] = tested on: CYPES; test: Pre-emergence herbicidal action; assay type: in vivo, Cyperus esculentus; conditions: 20 g a.i./ha, comparative experiment
Text: as §1

[15] = tested on: TRZAS; test: Post-emergence damage to crop plants; assay type: in vivo, Triticum aestiva; conditions: 20 g a.i./ha, comparative experiment
Procedure: as §2

[16] = tested on: DIGSA; test: Post-emergence herbicidal action; assay type: in vivo, Digitaria sanguinalis; conditions: 20 g a.i./ha, comparative experiment
Procedure: as §2

[17] = tested on: BRSNW; test: Post-emergence damage to crop plants; assay type: in vivo, Brassica napus; conditions: 20 g a.i./ha, comparative experiment
Procedure: as §2, with “The example numbers given in the tables relate to the compounds disclosed in the respective documents.” left out

[18] = tested on: GLXMA; test: Pre-emergence damage to crop plants; assay type: in vivo, Glycine max; conditions: comparative experiment
Text: as §1

[19] = tested on: LOLRI; test: Post-emergence herbicidal action; assay type: in vivo, Lolium rigidum; conditions: 20 g a.i./ha, comparative experiment
Procedure: as §2, with “The example numbers given in the tables relate to the compounds disclosed in the respective documents.” left out

[20] = tested on: LOLRI; test: Pre-emergence herbicidal action; assay type: in vivo, Lolium rigidum; conditions: 20 g a.i./ha, comparative experiment
Text: as §1

Cc1nnc(NC(=O)c2ccc(C(F)(F)F)c([S+](C)[O-])c2Cl)o1 (racemic) [2-360, from WO2012126932, 2-chloro-N-(5-methyl-1,3,4-oxadiazol-2-yl)-3-[(rac)-methylsulfinyl]-4-(trifluoromethyl)benzamide, reference compound]
Herbicidal action against SETVI [1]: 50% | Herbicidal action against VERPE [2]: 20% | Herbicidal action against CYPES [3]: 50% | Herbicidal action against ALOMY [4]: 30% | Herbicidal action against SETVI [5]: 80% | Herbicidal action against MATIN [6]: 70% | Herbicidal action against POLCO [7]: 20% | Damage to ZEAMX [8]: 20% | Herbicidal action against VERPE ([9]; 20 g a.i./ha): 0% | Herbicidal action against VERPE ([9]; 80 g a.i./ha): 10% | Herbicidal action against ZEAMX ([10]; 320 g a.i./ha): 60% | Herbicidal action against STEME ([11]; 20 g a.i./ha): 0% | Herbicidal action against STEME ([11]; 80 g a.i./ha): 70% | Herbicidal action against STEME ([11]; 320 g a.i./ha): 70% | Herbicidal action against STEME [12]: 0% | Herbicidal action against AVEFA [13]: 0% | Herbicidal action against CYPES [14]: 70%

Cc1nnc(NC(=O)c2ccc(C(F)(F)F)c([S+]([O-])C3CC3)c2Cl)o1 (racemic) [Racemate known from WO2012126932, 2-chloro-N-(5-methyl-1,3,4-oxadiazol-2-yl)-3-[(rac)-cyclopropylsulfinyl]-4-(trifluoromethyl)benzamide, reference compound]
Damage to TRZAS [15]: 40% | Herbicidal action against DIGSA [16]: 80% | Herbicidal action against VERPE [2]: 40% | Damage to BRSNW [17]: 100% | Herbicidal action against ALOMY [4]: 0% | Damage to GLXMA ([18]; 20 g a.i./ha): 60% | Damage to GLXMA ([18]; 80 g a.i./ha): 100% | Herbicidal action against LOLRI [19]: 30% | Damage to ZEAMX [8]: 20% | Damage to ZEAMX ([10]; 80 g a.i./ha): 70% | Herbicidal action against LOLRI [20]: 0% | Herbicidal action against AVEFA [13]: 0%
